# Source: patent publication US4451477A, “Bendazac treatment of cataract” (Aziende Chimiche Riunite Angelini Francesco A.C.R.A.F. …, priority 1981, dated 1984)
# Values joined by “and” are separate entries in the source; they are usually repeats but may differ in a detail not shown here. Identical values can stand only once. “Also recorded” adds a separate entry of the source. Counter-ions that a name gives are not always drawn. Like-named read-outs stand apart in the source and are kept apart here.
# Assays:
# cataract [1] = assay: first experiment: anti-cataract activity in 24 patients, oral; type: in vivo, human; design: key to Vision / Refraction / Slit-lamp and/or transillumin. / Overall Judgement: +: improvement; 0: no change; -: worsening
# Description: (§1) A first experiment was conducted on 24 patients with different types of cataract (cortical; corticonuclear, posterior subcapsular). […] The experiment included an examination of vision, refraction and slit-lamp test; the investigator was asked to express an overall judgement. These evaluations were performed before the beginning of treatment, after 4 weeks and again at the end of treatment when prolonged. The lysine salt of bendazac was administered at the dose of 1500 mg (corresponding to […] of bendazac) divided into three daily administrations during meals. The average duration of treatment was 50.4 days with time limits from 28 to 86 days. The study group consisted of 11 females and 13 males with an average age of 59.5 (47-74). The effects of treatment are summarized in Table 3; the values obtained in each patient are illustrated instead in Table 4. For practical purposes the results are expressed as: improvement (+), no change (0), worsening (-).
# cataract [2] = assay: eye drops instilled in 4 patients with cataract; type: in vivo, human; details: topical, eye drops 3 times daily for one month
# Description: Finally, bendazac was administered in 4 patients in the form of eye drops containing 0.25% of the lysine salt of bendazac. Eye drops were instilled 3 times daily for one month.
# [3] = oral absorption in man, serum concentration after single oral administration; type: in vivo, human; details: for concentration at 2 h: human, serum
# Excerpt: These blood levels appeared too low to obtain therapeutic activity.
# cataract [4] = assay: second experiment: double blind placebo-controlled anti-cataract study in patients, oral; type: in vivo, human; design: key to Vision / Refraction / Overall Judgement / Slit-lamp / Transillumination: +: improvement; 0: no change; -: worsening
# Description: as §1
# As a result of these encouraging results we decided to repeat the experiment under double blind conditions comparing the lysine salt of bendazac with placebo. A total of 35 patients were used; 19 were treated with placebo and 16 with the lysine salt of bendazac. The experimental methods used were identical to those described in the first experiment except for the duration of treatment which was always 4 weeks.
# lens homogenate = assay: heat-induced denaturation of lens homogenate (60° C., 20 min, nephelometric); type: biochemical, rat; details: for % inhibition of heat-induced denaturation of lens homogenate: 60° C., 20 min, pH 7.5
# Description: (§2) Experiments in vitro: A study was performed on both lens homogenates and intact lens. The opacification of this material was obtained by heating. For this purpose the same method as that already employed to study blood proteins was used (Silvestrini et al., 1968; Silvestrini et al., 1970) with some minor modifications which are reported below.
# (§3) For the study of the homogenate, fresh rat lens were used which has been removed from the capsule, immersed in phosphate buffer (pH 7.5; 0.1M) in the volumetric ratio of 15:85 and then homogenated. The homogenate was then centrifuged (10 minutes at 4000 r.p.m.), the supernatant was collected and further diluted 1:1 with the above phosphate buffer, alone or containing bendazac at different concentrations. The solution thus obtained was heated at 60° C. for 20 minutes and the denaturation was assessed nephelometrically. As reference a comparison is made with the values obtained with bovine serum albumin (BSA) denaturation.
# (§4) The experiment was repeated using different salts of bendazac including lithium, sodium, potassium, ammonium, organic bases (such as ethylenediamine, piperazine and diisopropylamine) and lysine. […] This experiment proves that the active ingredient is bendazac. The intact lens was studied by using fresh bovine lens which were kept for 2 hours in the phosphate buffer described above, either alone or containing bendazac at different concentrations. The lenses were then heated at 50° C. for 120 minutes; this procedure produced a clear-cut opacification in the subcapsular region. The degree of opacification was assessed blindly (the experimentor was unaware of the treatment), using a score from 0 to 4.
# cataract [5] = details: literature, cited from earlier work
# isolated bovine lenses = assay: heat-induced opacification of isolated intact bovine lenses (50° C., 120 min, blind score); details: same molar concentrations for salts
# Description: as §2, §4
# The test was repeated using the various salts of bendazac mentioned above and in this case also with the same molar concentrations the results obtained were identical to those observed with bendazac alone.
# [6] = cited from earlier work
# blood proteins = details: literature; cited from earlier work
# [7] = molecular target: bovine serum albumin (BSA) (Bos taurus, UniProt P02769); assay: heat-induced denaturation of bovine serum albumin (BSA); type: biochemical
# Description: as §3, with “Experiments in vitro: A study was performed on both lens homogenates and intact lens. The opacification of this material was obtained by heating. For this purpose the same method as that already employed to study blood proteins was used (Silvestrini et al., 1968; Silvestrini et al., 1970) with some minor modifications which are reported below. For” for “For”
# [8] = 24 patients, 1500 mg daily oral, Table 3 summary
# [9] = individual patient, one per line of Table 4, 1500 mg daily oral, 28-86 days, (dihydrate)
# [10] = 16 patients, 4 weeks, double blind, placebo (19) 1
# [11] = 16 patients, 4 weeks, double blind, placebo (19) 2
# [12] = 16 patients, 4 weeks, double blind, placebo (19) --
# [13] = individual patient, one per line of Table 6, 4 weeks, oral, listed as bendazac L, (dihydrate)
# [14] = drug molar concentration 5 × 10^-4
# Sequence of bovine serum albumin (BSA) (P02769 25-607): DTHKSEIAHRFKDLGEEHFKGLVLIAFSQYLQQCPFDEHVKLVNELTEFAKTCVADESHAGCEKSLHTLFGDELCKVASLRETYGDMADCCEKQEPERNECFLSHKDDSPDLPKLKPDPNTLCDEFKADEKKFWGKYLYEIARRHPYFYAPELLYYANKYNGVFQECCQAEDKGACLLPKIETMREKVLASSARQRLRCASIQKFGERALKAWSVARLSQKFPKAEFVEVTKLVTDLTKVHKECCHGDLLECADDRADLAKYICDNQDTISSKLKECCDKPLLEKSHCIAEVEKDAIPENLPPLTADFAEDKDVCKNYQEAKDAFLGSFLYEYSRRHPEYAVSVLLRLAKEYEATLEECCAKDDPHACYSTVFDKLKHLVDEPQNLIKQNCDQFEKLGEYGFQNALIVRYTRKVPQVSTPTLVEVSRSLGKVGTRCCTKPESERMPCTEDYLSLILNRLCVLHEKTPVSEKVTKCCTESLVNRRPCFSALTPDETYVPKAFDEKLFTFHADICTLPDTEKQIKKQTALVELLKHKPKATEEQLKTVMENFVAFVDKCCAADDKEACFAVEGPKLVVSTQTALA
structure (smiles),measurement,setting,value
"O=C(O)COc1nn(Cc2ccccc2)c2ccccc12 [lysine salt of bendazac, Salt of [(1-benzyl-1H-indazol-3-yl)oxy]acetic acid with L. lysine (dihydrate)]","Overall Judgement: improvement (+), number of patients",cataract [1]; [8],18
same,"Overall Judgement: no change (0), number of patients",cataract [1]; [8],5
same,"Overall Judgement: worsening (-), number of patients",cataract [1]; [8],1
same,"Refraction: improvement (+), number of patients",cataract [1]; [8],10
same,"Refraction: no change (0), number of patients",cataract [1]; [8],13
same,"Refraction: worsening (-), number of patients",cataract [1]; [8],1
same,"Slit-lamp and/or Transillum.: improvement (+), number of patients",cataract [1]; [8],14
same,"Slit-lamp and/or Transillum.: no change (0), number of patients",cataract [1]; [8],10
same,"Vision: improvement (+), number of patients",cataract [1]; [8],18
same,"Vision: no change (0), number of patients",cataract [1]; [8],6
same,number of patients with improvement,cataract [1]; depending on the evaluation method,10-18 patients
same,number of patients with relatively poor results,"cataract [1]; first experiment, 24 patients",5 patients
same,number of patients with worsening effect,"cataract [1]; first experiment, 24 patients",1 patient
same,Overall Judgement,cataract [1]; [9],+ and - and 0
same,Refraction,cataract [1]; [9],+ and 0 and -
same,Slit-lamp and/or transillumin.,cataract [1]; [9],+ and 0
same,Vision,cataract [1]; [9],+ and 0
same,effect on cataract,cataract [2],induces a regression of the disease
same,concentration at 2 h,"[3]; 2 hours after single oral administration of 500 mg lysine salt (= 303.8 mg bendazac), 6 volunteers, read-out: mean serum concentration",30000 ng/mL
same,oral absorption in man,"[3]; lysine salt vs bendazac alone, (dihydrate)",good oral absorption; also recorded: better absorbed in man than bendazac alone
same,"Overall Judgement: worsening (-), number of patients","cataract [4]; 16 patients, 4 weeks, double blind",2
same,"Overall Judgement: improvement (+), number of patients",cataract [4]; [10],11
same,"Refraction: improvement (+), number of patients",cataract [4]; [10],9
same,"Transillumination: no change (0), number of patients",cataract [4]; [10],2
same,"Vision: improvement (+), number of patients",cataract [4]; [10],10
same,"Overall Judgement: no change (0), number of patients",cataract [4]; [11],3
same,"Slit-lamp: no change (0), number of patients",cataract [4]; [11],2
same,"Vision: no change (0), number of patients","cataract [4]; 16 patients, 4 weeks, double blind, placebo (19) 6",6
same,"Slit-lamp: worsening (-), number of patients","cataract [4]; 16 patients, 4 weeks, double blind, placebo (19) 9",1
same,"Refraction: no change (0), number of patients","cataract [4]; 16 patients, 4 weeks, double blind, placebo (19) 12",7
same,"Slit-lamp: improvement (+), number of patients",cataract [4]; [12],10
same,"Transillumination: improvement (+), number of patients",cataract [4]; [12],4
same,Overall Judgement,cataract [4]; [13],0 and + and -
same,Refraction,cataract [4]; [13],0 and +
same,Slit-lamp,cataract [4]; [13],+ and 0 and -
same,Transillumination,cataract [4]; [13],+ and 0
same,Vision,cataract [4]; [13],0 and +
same,effect on cataract,"cataract [4]; oral administration, patients, (dihydrate)",healing effect on cataract; also recorded: induces a regression of the disease
O=C(O)COc1nn(Cc2ccccc2)c2ccccc12,anti-denaturant effect on the lens homogenate compared with bendazac alone,lens homogenate; at the same molar concentrations,the same anti-denaturant effect on the lens homogenate as that of bendazac alone
"O=C(O)c1cc(O)c2c3nc4ccccc4oc-3cc(=O)c2n1 [Catalin, 1-hydroxy-5-oxo-5H-pyrido[3,2-a]phenoxazino-3-carboxylic acid]",effect on cataract development (words),cataract [5],possible slowdown in cataract development
"CC(=O)Oc1ccccc1C(=O)O [aspirin, acetylsalicylic acid]",effect on cataract development (words),cataract [5],possible slowdown in cataract development
same,effect on cataract development (words),cataract [5]; listed as acetylsalicylic acid,delays the development of cataract but does not determine its regression
"O=C(O)COc1nn(Cc2ccccc2)c2ccccc12 [bendazac, [(1-benzyl-1H-indazol-3-yl)oxy]acetic acid]",protective effect on lens opacification in vitro (words),isolated bovine lenses,protective action in vitro with respect to lens opacification
same,protective effect on lens opacification in vitro (words),isolated bovine lenses; listed as Bendazac,clearcut protective effect on this experimentally induced cataract
same,protective effect on heat-induced denaturation of lens homogenate,lens homogenate; compared with BSA,prevents heat-induced denaturation of lens homogenate and that this protective effect is similar to that observed with BSA
same,% inhibition of heat-induced denaturation of lens homogenate,lens homogenate; [14],32%
same,% inhibition of heat-induced denaturation of lens homogenate,lens homogenate; drug molar concentration 10^-3,68%
same,% inhibition of heat-induced denaturation of lens homogenate,lens homogenate; drug molar concentration 10^-4,18%
same,oral absorption in humans,[6]; Silvestrini et al.,rather low; also recorded: too low
same,blood levels,"[6]; following 8 days of treatment at increasing doses from 150 to 900 mg daily, humans",8 µg
same,anti-denaturant activity on proteins,blood proteins,very specific anti-denaturant activity on some blood proteins
same,concentration at 2 h,"[3]; 300 mg of bendazac alone, oral, under the same conditions, read-out: serum levels",8000 ng/mL
same,inhibition at 500 µM,[7]; [14],47%
same,inhibition at 1000 µM,[7]; drug molar concentration 10^-3,60%
same,inhibition at 100 µM,[7]; drug molar concentration 10^-4,12%
